Entries after “also recorded” stand apart in the source; their conditions may differ.
What was measured:
[1] = biological target: T1, Nef/CNX interaction (Human immunodeficiency virus type 1 group M subtype B, UniProt P03406); assay: Co-immunoprecipitation of Nef and calnexin in transfected HEK293T cells; format: cell-based, HIV-1; settings: for inhibition of co-immunoprecipitation of Nef and calnexin: added 6 h post-transfection, lysed 48 h post-transfection, HEK293T
T1 construct: expressed in transfected cells; host or cells: HEK293T
Experimental: (§1) To test whether the compounds identified in the virtual screen can interfere with Nef/CNX interaction, a co-immunoprecipitation assay was performed. HEK293T cells were transfected with plasmid encoding for NefBRU and 6 h post-transfection were treated with NSC 1758 (4 μM), NSC 13987 (5 μM), or NSC 92938 (5 μM). These concentrations of the compounds were determined by the MTT assay to reduce cell metabolism by less than 10% during 5-day incubation (FIG. 6C). […] It was previously shown that membrane localization of Nef is important for interaction of Nef with calnexin (5). In order to rule out the possibility that the compound interferes with membrane localization of Nef, it was tested whether NSC 13987 affects interaction between Nef and ABCA1, as ABCA1/Nef interaction also requires membrane localization of Nef (1).
Their overall location in the structural alignment with the model of Nef-CNX complex is shown as translucent molecular surface. […] The set of compounds includes NSC 1758, NSC 13987, and NSC 92938 selected for experimental testing. b, Compound NSC 13987 docked to Nef binding site, which is centered on Lys4 and Lys7. Interactions of the compound with Nef include two hydrogen bonds with Nef amino acid residues Ser6 and Tyr124. […] THP-1 cells were treated with indicated compounds for 5 days and cytotoxicity was measured using MTT assay. In panel (D), HEK 293T cells were transfected with HA-tagged Nef, treated with compounds NSC 1758, NSC 13987 or NSC 92938, and lysed. Nef was immunoprecipitated using anti-HA agarose beads and bound complexes were immunoblotted for Nef and calnexin (left panels labeled IP: aIIA). Densitometric quantification of calnexin co-immunoprecipitation with Nef is presented in the right panel. Error bars indicate +/−SD of 3 independent experiments, and p values are shown above the bars. Whole cell lysates were analyzed for amount of calnexin, Nef and GAPDH (left panels labeled Lysate). In panel (E), HEK293T cells were co-transfected with ABCA1-FLAG and NefBRU and treated with compound NSC 13987. Cells were lysed 48 h post-transfection and ABCA1-FLAG was immunoprecipitated using anti-FLAG beads. Precipitated complexes were blotted for ABCA1 and Nef (top panels). Input amount was analyzed from whole cell lysates by immunoblotting for ABCA1, Nef and GAPDH (bottom panels).
Immunoprecipitation—For calnexin mutant/Nef interaction analysis, HEK293T cells were transfected with HA-tagged calnexin mutants and NefBRU expression plasmid. Cells were lysed 48 h post-transfection with 1% IGEPAL and 0.1% SDS lysis buffer on ice for 30 min. Lysates were incubated with anti-HA agarose beads for 2 h at 4° C. with rotation. Respective immunoprecipitates were washed three times with TBS (150 mM NaCl, 30 mM Tris-HCl, 5 mM EDTA, pH 7.5). […]

[2] = biological target: T2, ABCA1/Nef interaction (Human immunodeficiency virus type 1 group M subtype B, UniProt P03406); assay: Co-immunoprecipitation of ABCA1-FLAG and Nef in HEK293T cells; format: cell-based, HIV-1; settings: HEK293T co-transfected with ABCA1-FLAG and NefBRU, lysed 48 h post-transfection
T2 construct: expressed in transfected cells; host or cells: HEK293T
Experimental: as §1
Their overall location in the structural alignment with the model of Nef-CNX complex is shown as translucent molecular surface. […] THP-1 cells were treated with indicated compounds for 5 days and cytotoxicity was measured using MTT assay. […] Densitometric quantification of calnexin co-immunoprecipitation with Nef is presented in the right panel. […] Whole cell lysates were analyzed for amount of calnexin, Nef and GAPDH (left panels labeled Lysate). […] Input amount was analyzed from whole cell lysates by immunoblotting for ABCA1, Nef and GAPDH (bottom panels).

[3] = test system: THP-1 cells transfected with Nef; assay: apoA-I specific cholesterol efflux in Nef-transfected THP-1 cells; format: cell-based; settings: THP-1, PMA-activated, compared to DMSO-treated Nef expressing cells
Experimental: Next, it was tested whether the three compounds could prevent impairment of cholesterol efflux by Nef. THP-1 cells were transfected with a Nef encoding plasmid and drug treatment was started 6 h after transfection. The following day cells were activated with PMA after which cholesterol efflux assay was performed. Drug treatment was continued throughout the duration of the experiment. […] Cholesterol efflux in Nef-transfected untreated or DMSO-treated cells was reduced by over 2-fold relative to mock-transfected cells.
Specifically, in panel (A) THP-1 cells were transfected with Nef and incubated with compounds NSC 1758, NSC 13987 and NSC 92938 or DMSO, and cholesterol efflux was measured 5 days post-transfection. Error bars show SEM. In panel (B) primary macrophages were infected in triplicate with HIV-1 ADA. Compound NSC 13987 (5 μM) or DMSO was added 3 days after infection and maintained thereafter, and virus replication was monitored by measuring RT-activity in the supernatant over a 14-day period. […] In panel (C) primary macrophages were infected with HIV-1 ADA or mock-infected and treated with DMSO or NSC13987 as in panel B. Cholesterol efflux was measured 14 days post-infection. […]
(§2) Cholesterol Efflux—Infected cells were seeded in a 24-well plate and labeled with [^3H] cholesterol for 48 h. […] Level of radioactivity in the media as well as in the cells was determined by scintillation counting. […]

[4] = test system: monocyte-derived macrophages (MDM) infected with HIV-1 ADA; assay: Cholesterol efflux from HIV-1 ADA infected monocyte-derived macrophages; format: cell-based; settings: 14 days post-infection, versus mock-infected cells
Experimental: (§3) To test the effect of NSC 13987 in the context of natural infection, monocyte-derived macrophages (MDM) were infected with HIV-1 ADA, treated with NSC 13987 and cholesterol efflux was measured.
(§4) Specifically, in panel (A) THP-1 cells were transfected with Nef and incubated with compounds NSC 1758, NSC 13987 and NSC 92938 or DMSO, and cholesterol efflux was measured 5 days post-transfection. Error bars show SEM. In panel (B) primary macrophages were infected in triplicate with HIV-1 ADA. Compound NSC 13987 (5 μM) or DMSO was added 3 days after infection and maintained thereafter, and virus replication was monitored by measuring RT-activity in the supernatant over a 14-day period. Results of 3 measurements are shown as mean ±SEM. *, p<0.005; **, p<0.007. In panel (C) primary macrophages were infected with HIV-1 ADA or mock-infected and treated with DMSO or NSC13987 as in panel B. Cholesterol efflux was measured 14 days post-infection. Error bars show SEM.
as §2, with “counting. Cholesterol efflux was calculated as the percentage of radioactivity in the media divided by the total amount measured in the cells and media.” for “counting.”

[5] = test system: HIV-1 ADA; assay: HIV-1 ADA replication in monocyte-derived macrophages (RT activity in supernatant); format: cell-based
Experimental: as §3, §4

[6] = test system: ABCA1; assay: ABCA1 abundance in the presence of Nef; format: cell-based
[7] = biological target: T3, calnexin (CNX) (Homo sapiens, UniProt P27824); assay: Surface plasmon resonance, immobilized full-length calnexin; format: binding; settings: myristoylated Nef injected at 6.25-200 nM, 25° C.
T3 construct: Full length CNX and the C-terminal (cytoplasmic) domain of CNX (CNX-CT) were captured on CMS chips by amine coupling; His-tag (H8) (N); made in house; host or cells: E. coli BL21 DE
T3 sequence (P27824 21-592): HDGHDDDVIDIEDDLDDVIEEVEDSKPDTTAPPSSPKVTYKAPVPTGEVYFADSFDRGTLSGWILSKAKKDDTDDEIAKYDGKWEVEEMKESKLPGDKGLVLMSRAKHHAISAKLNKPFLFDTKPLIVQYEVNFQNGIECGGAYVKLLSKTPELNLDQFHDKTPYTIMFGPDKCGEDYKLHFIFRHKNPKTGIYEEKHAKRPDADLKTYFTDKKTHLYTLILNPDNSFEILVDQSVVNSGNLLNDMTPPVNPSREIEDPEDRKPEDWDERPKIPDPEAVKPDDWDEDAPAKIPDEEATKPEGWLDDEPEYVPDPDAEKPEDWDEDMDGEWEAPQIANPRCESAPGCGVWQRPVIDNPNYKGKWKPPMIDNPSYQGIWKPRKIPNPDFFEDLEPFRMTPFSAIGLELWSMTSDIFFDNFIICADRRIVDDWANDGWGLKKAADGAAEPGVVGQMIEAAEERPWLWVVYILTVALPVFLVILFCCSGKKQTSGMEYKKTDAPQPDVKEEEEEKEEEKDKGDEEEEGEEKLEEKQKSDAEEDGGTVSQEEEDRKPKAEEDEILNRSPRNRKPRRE
Experimental: (§5) Binding of myristoylated NefsF2 (33) to CNX and its cytoplasmic domain was analyzed using surface plasmon resonance (FIGS. 5B,C). CNX and CNX-CT were immobilized on microchip surfaces and myristoylated Nef was injected over the surface.
Steps of full-length CL7-tagged calnexin (CNX-CL7) purification are shown in detail. Whole cell lysate (WCL) was centrifuged to remove cell debris, the supernatant (SN) was treated with 0.07% polyethylene-emine (PE) to precipitate DNA, the pellet (PL), which contained most of CNX protein, was washed with detergent-containing buffer to release CNX into solution, centrifuged and the resulting supernatant was loaded on Immunity protein 7 (Im7) column. […] ACNX—truncated CNX fragment; SUMO—SUMO domain; P(PSC), P(SUMOP)—cleavage sites for the PSC and SUMO proteases, respectively; H8—8-Histidine tag (SEQ ID NO: 2). In panels (B) and (C), surface plasmon resonance experiments were done in a Biacore T-200 by using a CMS chip. […]
Surface Plasmon Resonance Experiments—Direct binding between purified recombinant proteins was evaluated by surface plasmon resonance technology utilizing a Biacore T-200 instrument at the Biacore Molecular Interaction Shared Resource of Georgetown University. […] The data was analyzed by BiaEvaluation software using the bivalent analyte model.

[8] = biological target: T4, cytoplasmic tail of CNX (CNX-CT) (Homo sapiens, UniProt P27824); assay: Surface plasmon resonance, immobilized calnexin cytoplasmic tail; format: binding; settings: myristoylated Nef injected at 6.25-200 nM, 25° C.
T4 construct: the C-terminal (cytoplasmic) domain of CNX (CNX-CT) were captured on CMS chips by amine coupling; His-tag (N); SUMO domain (N); made in house; host or cells: E. coli BL21 DE
T4 sequence (P27824 503-592 limits assumed): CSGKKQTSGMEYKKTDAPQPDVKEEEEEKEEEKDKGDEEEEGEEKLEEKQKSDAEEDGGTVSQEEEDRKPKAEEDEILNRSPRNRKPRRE
Experimental: as §5
Steps of full-length CL7-tagged calnexin (CNX-CL7) purification are shown in detail. Whole cell lysate (WCL) was centrifuged to remove cell debris, the supernatant (SN) was treated with 0.07% polyethylene-emine (PE) to precipitate DNA, the pellet (PL), which contained most of CNX protein, was washed with detergent-containing buffer to release CNX into solution, centrifuged and the resulting supernatant was loaded on Immunity protein 7 (Im7) column. […] ACNX—truncated CNX fragment; SUMO—SUMO domain; P(PSC), P(SUMOP)—cleavage sites for the PSC and SUMO proteases, respectively; H8—8-Histidine tag (SEQ ID NO: 2). In panels (B) and (C), surface plasmon resonance experiments were done in a Biacore T-200 by using a CMS chip. […] Lines representing actual data and a curve fit to a […] analyte binding model in BiaEvaluation software are shown.
Surface Plasmon Resonance Experiments—Direct binding between purified recombinant proteins was evaluated by surface plasmon resonance technology utilizing a Biacore T-200 instrument at the Biacore Molecular Interaction Shared Resource of Georgetown University. Full length CNX and the C-terminal (cytoplasmic) domain of CNX (CNX-CT) were captured on CMS chips by amine coupling. Three surfaces of CM5 chip were activated by NHS/CDC (N-hydroxysuccinimide/1-ethyl-3-(3-dimethylaminopropyl)carbodiimide hydrochloride) for 720 sec. Flow cell 1 was left empty as a reference surface. Full length CNX and CNX-CT were diluted in 10 mM sodium acetate (pH 4.0) buffer at 1.8 μM and 10.6 μM, respectively, and captured on flow cell 3 and flow cell 2, at 3200 RU and 16600 RU, respectively. After protein capture, all 3 flow cells were inactivated by 720 sec injection of 1 M ethanolamine. […] The data was analyzed by BiaEvaluation software using the bivalent analyte model.

T2 sequence (O95477 whole entry, other chains not shown): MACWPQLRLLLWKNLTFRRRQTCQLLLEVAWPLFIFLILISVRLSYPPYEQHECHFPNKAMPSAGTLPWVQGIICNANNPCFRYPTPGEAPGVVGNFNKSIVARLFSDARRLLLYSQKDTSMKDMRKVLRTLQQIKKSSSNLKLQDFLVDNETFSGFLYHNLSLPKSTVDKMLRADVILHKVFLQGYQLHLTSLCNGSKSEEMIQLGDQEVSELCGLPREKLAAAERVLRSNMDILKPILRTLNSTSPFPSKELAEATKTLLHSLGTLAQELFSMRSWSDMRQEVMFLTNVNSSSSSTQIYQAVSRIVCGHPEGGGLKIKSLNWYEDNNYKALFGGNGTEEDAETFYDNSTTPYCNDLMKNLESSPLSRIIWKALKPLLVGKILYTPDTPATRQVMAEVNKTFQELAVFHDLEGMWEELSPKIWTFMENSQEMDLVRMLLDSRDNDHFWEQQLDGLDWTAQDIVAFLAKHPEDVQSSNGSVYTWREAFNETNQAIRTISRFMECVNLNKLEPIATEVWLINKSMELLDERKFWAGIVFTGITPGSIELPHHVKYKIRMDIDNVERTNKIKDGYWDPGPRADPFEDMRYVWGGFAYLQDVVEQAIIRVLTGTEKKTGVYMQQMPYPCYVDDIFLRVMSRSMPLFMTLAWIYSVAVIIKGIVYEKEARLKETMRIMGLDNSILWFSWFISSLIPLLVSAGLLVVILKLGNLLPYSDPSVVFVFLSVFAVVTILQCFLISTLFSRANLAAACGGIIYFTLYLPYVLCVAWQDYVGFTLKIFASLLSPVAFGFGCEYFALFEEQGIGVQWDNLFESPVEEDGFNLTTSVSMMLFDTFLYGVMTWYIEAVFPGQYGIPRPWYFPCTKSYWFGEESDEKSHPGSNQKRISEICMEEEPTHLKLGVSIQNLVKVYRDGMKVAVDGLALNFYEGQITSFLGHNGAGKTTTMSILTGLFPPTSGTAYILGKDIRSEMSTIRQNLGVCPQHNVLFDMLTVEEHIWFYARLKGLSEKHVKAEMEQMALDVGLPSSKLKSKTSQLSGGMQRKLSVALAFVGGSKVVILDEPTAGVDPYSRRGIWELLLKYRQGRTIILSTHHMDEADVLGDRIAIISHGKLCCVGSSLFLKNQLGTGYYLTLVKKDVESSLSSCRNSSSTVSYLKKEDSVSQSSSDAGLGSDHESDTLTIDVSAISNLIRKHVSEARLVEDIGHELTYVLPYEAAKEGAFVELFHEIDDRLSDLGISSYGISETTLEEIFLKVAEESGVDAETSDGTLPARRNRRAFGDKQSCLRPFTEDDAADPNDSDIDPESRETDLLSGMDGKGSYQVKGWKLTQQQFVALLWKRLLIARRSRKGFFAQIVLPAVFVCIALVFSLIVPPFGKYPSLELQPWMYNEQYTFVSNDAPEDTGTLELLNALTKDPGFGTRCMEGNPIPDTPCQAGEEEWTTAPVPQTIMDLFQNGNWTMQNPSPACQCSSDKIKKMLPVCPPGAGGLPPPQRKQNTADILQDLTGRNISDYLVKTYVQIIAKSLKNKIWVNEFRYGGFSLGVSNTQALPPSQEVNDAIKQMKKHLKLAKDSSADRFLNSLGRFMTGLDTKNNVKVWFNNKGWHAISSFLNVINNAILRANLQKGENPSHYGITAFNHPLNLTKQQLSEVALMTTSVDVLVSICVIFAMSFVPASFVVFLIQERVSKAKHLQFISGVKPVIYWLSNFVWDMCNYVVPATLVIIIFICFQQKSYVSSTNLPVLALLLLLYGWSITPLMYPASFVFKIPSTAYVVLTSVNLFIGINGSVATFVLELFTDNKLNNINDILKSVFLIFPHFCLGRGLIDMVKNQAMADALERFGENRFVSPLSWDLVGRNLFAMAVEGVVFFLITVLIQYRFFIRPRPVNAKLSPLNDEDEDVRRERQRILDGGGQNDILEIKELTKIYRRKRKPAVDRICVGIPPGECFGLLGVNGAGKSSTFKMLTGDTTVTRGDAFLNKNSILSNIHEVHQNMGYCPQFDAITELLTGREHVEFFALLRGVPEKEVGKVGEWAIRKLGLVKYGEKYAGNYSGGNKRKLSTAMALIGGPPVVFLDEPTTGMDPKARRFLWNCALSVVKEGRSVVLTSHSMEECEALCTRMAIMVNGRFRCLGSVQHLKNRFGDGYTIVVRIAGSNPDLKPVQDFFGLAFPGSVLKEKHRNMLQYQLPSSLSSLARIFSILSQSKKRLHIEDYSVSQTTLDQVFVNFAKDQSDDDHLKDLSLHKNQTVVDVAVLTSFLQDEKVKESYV

Molecule: N=C(Nc1cc2ccccc2c2ccccc12)Nc1cc2ccccc2c2ccccc12 [NSC 1758, 1,3-DI-9-Phenanthrylguanidine]
- inhibition of co-immunoprecipitation of Nef and calnexin ([1]; 4 μM): showed a trend towards inhibiting Nef/CNX binding but did not reach statistical significance

Molecule: O=C1c2ccccc2C(=O)c2c(Nc3ccc4c5c(cccc35)C(=O)c3ccccc3-4)cccc21 [NSC 13987, 1[(7-Oxo-7H-benz[de]anthracene-3-yl)amino] anthraquinone]
- effect on ABCA1/Nef interaction [2]: remained unaffected
- cholesterol efflux in Nef-transfected cells [3]: significantly increased; also recorded: restored cholesterol efflux impaired by Nef
- cholesterol efflux from HIV-infected cells [4]: not significantly different from that of mock-infected cells
- inhibition of co-immunoprecipitation of Nef and calnexin ([1]; 5 μM): prevented co-precipitation of CNX with Nef
- inhibition at 5 µM ([1]; HEK-293T, read-out: inhibition of co-immunoprecipitation of Nef and calnexin): > 50%
- viral replication in the presence of the compound ([5]; 5 μM added 3 days after infection, RT activity over 14 days, primary macrophages): reduced
- inhibition of viral replication ([5]; FIG. 7B, HIV-1 ADA in primary macrophages, 5 μM): ~2 fold
- Nef-mediated effect on ABCA1 abundance [6]: reversed Nef-mediated effect on ABCA1 abundance

Molecule: O=C1c2ccccc2C(=O)c2c1ccc1c2[nH]c2ccccc21 [NSC 92938, 5H-Naphtho(2,3-a)carbazole-5,13(12H)-dione]
- inhibition of co-immunoprecipitation of Nef and calnexin ([1]; 5 μM): showed a trend towards inhibiting Nef/CNX binding but did not reach statistical significance

Molecule: NefSF2: myristoylated HIV-1 Nef SF2 protein injected over immobilized calnexin in surface plasmon resonance
- ka [7]: 133800 M⁻¹ s⁻¹
- kd [7]: 0.01192 s⁻¹
- ka [8]: 908300 M⁻¹ s⁻¹
- kd [8]: 0.008569 s⁻¹
- Kd ([8]; Biacore T-200, read-out: affinity (KD)): 9.4 nM
